In test [1] the target is T1, glutathione-S-transferase (GST) tagged LXRbeta LBD (ligand binding domain) (Homo sapiens, UniProt P55055).
T1 construct: purchased Invitrogen pv4658.pps
T1 sequence (P55055 222-460 limits assumed): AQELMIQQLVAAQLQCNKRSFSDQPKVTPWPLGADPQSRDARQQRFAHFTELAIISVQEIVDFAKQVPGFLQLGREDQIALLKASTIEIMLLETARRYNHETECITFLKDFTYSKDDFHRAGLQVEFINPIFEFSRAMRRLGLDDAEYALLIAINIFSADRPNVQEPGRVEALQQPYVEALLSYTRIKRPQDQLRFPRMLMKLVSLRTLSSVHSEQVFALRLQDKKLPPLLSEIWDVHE
Nature of the test: LanthaScreen TR-FRET Liver X Receptor Coactivator Assay, LXR beta-LBD. Type of test: biochemical. The following applies: for Emax: efficacy in relation to reference dual agonist T1317, read-out: LXR beta activity at max dose (%) (Emax); for EC50: potency (Inflection Point) of co-activator recruitment, TR-FRET, read-out: LXR beta IP. As for the experimental part:
(§1) While running the LanthaScreen™ TR-FRET Liver X Receptor Coactivator Assay, LXR alpha-LBD or LXR beta-LBD was added to ligand test compounds followed by addition of a mixture of a fluorescein-labelled coactivator peptide and terbium-conjugated anti-GST antibody. After an incubation period at room temperature, TR-FRET (time-resolved fluorescence resonance energy transfer) was measured using a filter-based instrument capable of TR-FRET, e.g. PerkinElmer Envision.

Test [2] concerns the target T2, glutathione-S-transferase (GST) tagged LXRalpha LBD (ligand binding domain) (Homo sapiens, UniProt Q13133).
T2 construct: purchased Invitrogen pv4655
T2 sequence (Q13133 209-447 limits assumed): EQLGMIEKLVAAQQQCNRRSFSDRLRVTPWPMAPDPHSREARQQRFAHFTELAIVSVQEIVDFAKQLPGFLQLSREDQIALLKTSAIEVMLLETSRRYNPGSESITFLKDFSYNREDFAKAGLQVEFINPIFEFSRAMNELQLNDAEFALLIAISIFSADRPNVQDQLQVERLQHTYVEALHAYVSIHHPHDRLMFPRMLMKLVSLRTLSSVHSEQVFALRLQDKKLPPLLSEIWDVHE
Nature of the test: LanthaScreen TR-FRET Liver X Receptor Coactivator Assay, LXR alpha-LBD. Type of test: biochemical. The following applies: for Emax: efficacy in relation to reference dual agonist T1317, read-out: LXR alpha activity at max dose (%) (Emax); for EC50: read-out: LXR alpha IP. As for the experimental part:
as §1

[3] abbreviates: potency (Inflection Point) of co-activator recruitment, TR-FRET.

Consider `CC(C)(C)OC(=O)N1CCN(c2ncc(-c3ccc(C(=O)N4CCCCC4)c(Cl)c3)cc2C#N)CC1` [Example 5-11, tert-butyl 4-{5-[3-chloro-4-(piperidin-1-ylcarbonyl)phenyl]-3-cyanopyridin-2-yl}piperazine-1-carboxylate], for which the Emax in test [1] amounted to 59%; in test [2], 89%. The EC50 in test [1] worked out at 300 nM; in test [2] (setting [3]), 11700 nM.

Turning to `C=CCN(C(=O)c1ccc(-c2cnc(N3CCN(C(=O)OC(C)(C)C)CC3)c(C#N)c2)cc1Cl)C1CCS(=O)(=O)C1` (stereo not drawn) [Example 5-32, tert-butyl 4-(5-{3-chloro-4-[(1,1-dioxidotetrahydro-thiophen-3-yl)(prop-2-en-1-yl)carbamoyl]phenyl}-3-cyanopyridin-2-yl)piperazine-1-carboxylate], the results for the Emax in test [1] and in test [2] were 78% and 44%, respectively. Besides, the values for the EC50 in test [1] and in test [2] (setting [3]) were 2210 nM and 23900 nM, respectively.

Consider `COc1cc(-c2cnc(N3CCN(C(=O)OC(C)(C)C)CC3)c(C#N)c2)ccc1C(=O)N(C)C` [Example 8-2, tert-butyl 4-{3-cyano-5-[4-(dimethylcarbamoyl)-3-methoxyphenyl]pyridin-2-yl}piperazine-1-carboxylate], for which the maximal response (Emax) in test [1] is 73%; in test [2], 28%. In addition, the EC50 in test [1] was 846 nM; in test [2] (setting [3]), 25800 nM.

Consider `CC(O)CN(CC(C)O)C(=O)c1ccc(-c2cnc(N3CCN(C(=O)OC(C)(C)C)CC3)c(C#N)c2)cc1Cl` (stereo not drawn) [Example 5-25, tert-butyl 4-(5-{4-[bis(2-hydroxypropyl)carbamoyl]-3-chlorophenyl}-3-cyanopyridin-2-yl)piperazine-1-carboxylate], for which the Emax in test [1] came out at 56%; in test [2], 36%. In addition, the figures for the EC50 in test [1] and in test [2] (setting [3]) were 741 nM and 7890 nM, respectively.

Turning to `CN(C)C(=O)c1ccc(-c2cnc(N3CCN(C(=O)Cc4c[nH]c5ccccc45)CC3)c(C#N)c2)cc1Cl` [Example 2-22, 2-chloro-4-{5-cyano-6-[4-(1H-indol-3-ylacetyl)piperazin-1-yl]pyridin-3-yl}-N,N-dimethylbenzamide], the results for the Emax in test [1] and in test [2] were 83% and 54%, respectively. Besides, the EC50 came out at 186 nM in test [1] and 30000 nM in test [2] (setting [3]).

Regarding `CN(C)NC(=O)c1ccc(-c2cnc(N3CCN(C(=O)OC(C)(C)C)CC3)c(C#N)c2)cc1Cl` [Example 5-6, tert-butyl 4-(5-{3-chloro-4-[(2,2-dimethylhydrazino)carbonyl]phenyl}-3-cyanopyridin-2-yl)piperazine-1-carboxylate], the figures for the Emax in test [1] and in test [2] were 77% and 43%, respectively. Also, the EC50 worked out at 435 nM in test [1] and 8780 nM in test [2] (setting [3]).

Turning to `Cc1nonc1CC(=O)N1CCN(c2ncc(-c3ccc(C(=O)N(C)C)c(Cl)c3)cc2C#N)CC1` [Example 2-10, 2-chloro-4-(5-cyano-6-{4-[(4-methyl-1,2,5-oxadiazol-3-yl)acetyl]piperazin-1-yl}pyridin-3-yl)-N,N-dimethylbenzamide], the results for the Emax in test [1] and in test [2] were 63% and 10%, respectively. Further, the EC50 in test [1] was found to be 2330 nM. The “LXR alpha IP (nM)” value in test [2] (setting [3]) is given as “No IP”.

For `CN(CCn1ccnc1)C(=O)c1ccc(-c2cnc(N3CCN(C(=O)OC(C)(C)C)CC3)c(C#N)c2)cc1Cl` [Example 5-21, tert-butyl 4-[5-(3-chloro-4-{[2-(1H-imidazol-1-yl)ethyl](methyl)carbamoyl}phenyl)-3-cyanopyridin-2-yl]piperazine-1-carboxylate], the Emax in test [1] was found to be 81%; in test [2], 37%. Also, the EC50 in test [1] came to 931 nM; in test [2] (setting [3]), 9240 nM.

As to `CC1CN(c2ncc(-c3ccc(C(=O)N(C)C)c(Cl)c3)cc2C#N)CCN1C(=O)OC(C)(C)C` (stereo not drawn) [Example 8-6, tert-butyl 4-{5-[3-chloro-4-(dimethylcarbamoyl)phenyl]-3-cyanopyridin-2-yl}-2-methylpiperazine-1-carboxylate], the Emax came to 78% in test [1] and 68% in test [2]. Moreover, the EC50 in test [1] is 57 nM; in test [2] (setting [3]), 12700 nM.

For orientation: Emax means the maximal effect, on the per cent scale that the assay sets.

For the origin of these results see patent publication US10239849B2 (Merck Sharp & Dohme Corp., priority 2015, dated 2019).
